The source made the active and inactive calls. No cut-off for these calls is given here.
Columns and labels:
MCF7 [1] = test: Induction of cell cycle arrest in human MCF7 cells assessed as accumulation of cells at G0/G1 phase at 25 nM measured after 24 hrs by flow cytometry (reference value: 61.73%); assay type: functional
Tubulin (Homo sapiens) [2] = target: T1, Tubulin (Homo sapiens) (UniProt P68371+Q9H4B7+P0DPH7+P68366+Q13509+Q71U36+P04350+Q3ZCM7+P07437+P68363+Q9BQE3+Q6PEY2+Q13885+Q9BVA1+Q9BUF5); test: Inhibition of microtubule assembly in human HepG2 cells assessed as disrupted microtubule network at 50 uM measured after 24 hrs incubation by anti-alpha-tubulin antibody (green) and Hoechst 33342 (blue) stained nuclei were obtained under microscopy; assay type: cell-based
MIA PaCa-2 = test: Antiproliferation activity against human MIA PaCa-2 cells measured after 72 hrs incubation by MTT assay; assay type: functional, cell-based; details: MIA PaCa-2, 72 h
MCF7 [3] = test: Induction of apoptosis in human MCF7 cells assessed as early apoptotic cells at 6.25 nM measured after 48 hrs by AnnexinV/PI double staining assays (reference value: 5.32%); assay type: functional
NCI/ADR-RES = test: Antiproliferation activity against human MCF7/ADR cells measured after 72 hrs incubation by MTT assay; assay type: functional, cell-based
MCF7 [4] = test: Induction of cell cycle arrest in human MCF7 cells assessed as accumulation of cells at G0/G1 phase at 500 nM measured after 24 hrs by flow cytometry (reference value: 61.73%); assay type: functional
[5] = target: Tubulin beta (Homo sapiens) (UniProt P68371+Q9H4B7+Q13509+P04350+Q3ZCM7+P07437+Q13885+Q9BVA1+Q9BUF5+A6NNZ2); test: Binding affinity to beta-tubulin colchicine binding site in human MCF7 cells assessed as inhibition of EBI-beta-tubulin adduct band formation preincubated for 2 hrs followed by EBI addition measured after 2 hrs by EBI competition based Western blotting analysis; assay type: cell-based; details: dose 12.5-100 nM
MCF7 [6] = test: Induction of apoptosis in human MCF7 cells assessed as late apoptotic cells at 6.25 nM measured after 48 hrs by AnnexinV/PI double staining assays (reference value: 2.60%); assay type: functional
MCF7 [7] = test: Induction of apoptosis in human MCF7 cells assessed as necrotic cells at 12.5 nM measured after 48 hrs by AnnexinV/PI double staining assays (reference value: 0.89%); assay type: functional
MCF7 [8] = test: Induction of apoptosis in human MCF7 cells assessed as multinuclear cells at 5 nM measured after 24 hrs by fluorescent microscopy; assay type: functional
MCF7 [9] = test: Induction of cell cycle arrest in human MCF7 cells assessed as accumulation of cells at G2/M phase at 4 nM measured after 24 hrs by flow cytometry (reference value: 22.84%); assay type: functional
MCF7 [10] = test: Induction of apoptosis in human MCF7 cells assessed as karyorrhexis at 5 nM measured after 24 hrs by fluorescent microscopy; assay type: functional
MCF7 [11] = test: Induction of cell cycle arrest in human MCF7 cells assessed as accumulation of cells at G0/G1 phase at 4 nM measured after 24 hrs by flow cytometry (reference value: 61.73%); assay type: functional
MCF7 [12] = test: Induction of apoptosis in human MCF7 cells assessed as late apoptotic cells at 12.5 nM measured after 48 hrs by AnnexinV/PI double staining assays (reference value: 2.60%); assay type: functional
MCF7 [13] = test: Induction of cell cycle arrest in human MCF7 cells assessed as accumulation of cells at G2/M phase at 500 nM measured after 24 hrs by flow cytometry (reference value: 22.84%); assay type: functional
MCF7 [14] = test: Induction of cell cycle arrest in human MCF7 cells assessed as accumulation of cells at G2/M phase at 100 nM measured after 24 hrs by flow cytometry (reference value: 22.84%); assay type: functional
MCF7 [15] = test: Induction of apoptosis in human MCF7 cells assessed as early apoptotic cells at 50 nM measured after 48 hrs by AnnexinV/PI double staining assays (reference value: 5.32%); assay type: functional
Tubulin (Homo sapiens) [16] = target: T1, Tubulin (Homo sapiens); test: Inhibition of microtubule assembly in human MCF7 cells assessed as disrupted microtubule network at 50 uM measured after 24 hrs incubation by anti-alpha-tubulin antibody (green) and Hoechst 33342 (blue) stained nuclei were obtained under microscopy; assay type: cell-based
KB = test: Antiproliferation activity against human KB cells measured after 72 hrs incubation by MTT assay; assay type: functional, cell-based
MCF7 [17] = test: Induction of cell cycle arrest in human MCF7 cells assessed as increase in phosphorylation of histone H3 at […] by Western blot analysis; assay type: functional, cell-based; details: dose lower 6.25 µM
L02 = test: Antiproliferation activity against human L02 cells measured after 72 hrs incubation by MTT assay; assay type: functional, cell-based; details: L02, 72 h
MCF7 [18] = test: Induction of cell cycle arrest in human MCF7 cells assessed as increase in cyclin B1 protein expression at […] by Western blot analysis; assay type: functional, cell-based; details: dose lower 6.25 µM
MCF7 [19] = test: Induction of apoptosis in human MCF7 cells assessed as viable cells at 12.5 nM measured after 48 hrs by AnnexinV/PI double staining assays (reference value: 91.20%); assay type: functional; details: read-out: Activity
MCF7 [20] = test: Induction of apoptosis in human MCF7 cells assessed as viable cells at 6.25 nM measured after 48 hrs by AnnexinV/PI double staining assays (reference value: 91.20%); assay type: functional; details: read-out: Activity
MCF7 [21] = test: Induction of cell cycle arrest in human MCF7 cells assessed as accumulation of cells at G2/M phase at 25 nM measured after 24 hrs by flow cytometry (reference value: 22.84%); assay type: functional
MDA-MB-231 = test: Antiproliferation activity against human MDA-MB-231 cells measured after 72 hrs incubation by MTT assay; assay type: functional, cell-based; details: MDA-MB-231, 72 h
MCF7 [22] = test: Induction of apoptosis in human MCF7 cells assessed as early apoptotic cells at 25 nM measured after 48 hrs by AnnexinV/PI double staining assays (reference value: 5.32%); assay type: functional
MCF7 [23] = test: Induction of apoptosis in human MCF7 cells assessed as late apoptotic cells at 50 nM measured after 48 hrs by AnnexinV/PI double staining assays (reference value: 2.60%); assay type: functional
MCF7 [24] = test: Induction of apoptosis in human MCF7 cells assessed as viable cells at 50 nM measured after 48 hrs by AnnexinV/PI double staining assays (reference value: 91.20%); assay type: functional; details: read-out: Activity
HMEC-1 [25] = test: Anti-proliferative activity against human HMEC-1 cells measured after 48 hrs; assay type: functional, cell-based; details: HMEC-1, 48 h
HMEC-1 [26] = test: Anti-migration activity in human HMEC-1 cells assessed as inhibition of cell migration at 5 nM measured after 48 hrs by Scratching assay; assay type: functional, cell-based
MCF7 [27] = test: Induction of apoptosis in human MCF7 cells assessed as necrotic cells at 6.25 nM measured after 48 hrs by AnnexinV/PI double staining assays (reference value: 0.89%); assay type: functional
Tubulin (Homo sapiens) [28] = target: T1, Tubulin (Homo sapiens); test: In vitro inhibition of microtubule (unknown origin) assembly at 10 uM; assay type: protein-complex assay
MCF7 [29] = test: Induction of apoptosis in human MCF7 cells assessed as early apoptotic cells at 12.5 nM measured after 48 hrs by AnnexinV/PI double staining assays (reference value: 5.32%); assay type: functional
MCF7 [30] = test: Induction of cell cycle arrest in human MCF7 cells assessed as accumulation of cells at G0/G1 phase at 100 nM measured after 24 hrs by flow cytometry (reference value: 61.73%); assay type: functional
MCF7 [31] = test: Induction of apoptosis in human MCF7 cells assessed as late apoptotic cells at 25 nM measured after 48 hrs by AnnexinV/PI double staining assays (reference value: 2.60%); assay type: functional
MCF7 [32] = test: Induction of apoptosis in human MCF7 cells assessed as necrotic cells at 25 nM measured after 48 hrs by AnnexinV/PI double staining assays (reference value: 0.89%); assay type: functional
MCF7 [33] = test: Induction of apoptosis in human MCF7 cells assessed as necrotic cells at 50 nM measured after 48 hrs by AnnexinV/PI double staining assays (reference value: 0.89%); assay type: functional
MCF7 [34] = test: Antiproliferation activity against human MCF7 cells measured after 72 hrs incubation by MTT assay; assay type: functional, cell-based; details: MCF7, 72 h
HMEC-1 [35] = test: Angiogenic activity against human HMEC-1 cells assessed as decrease in vascular area measured after 48 hrs by Endothelial tube formation assay; assay type: functional, cell-based; details: dose 1-100 nM
MCF7 [36] = test: Induction of apoptosis in human MCF7 cells assessed as viable cells at 25 nM measured after 48 hrs by AnnexinV/PI double staining assays (reference value: 91.20%); assay type: functional; details: read-out: Activity
NCI-H460 = test: Antiproliferation activity against human NCI-H460 cells measured after 72 hrs incubation by MTT assay; assay type: functional, cell-based; details: NCI-H460, 72 h

inhibition (Tubulin (Homo sapiens) [2]): Active | IC50 (MIA PaCa-2): 0.81 nM | Activity [5]: Active | inhibition (Tubulin (Homo sapiens) [16]): Active | IC50 (KB): 9.37 nM | IC50 (MDA-MB-231): 5.19 nM | inhibition (Tubulin (Homo sapiens) [28]): Active | IC50 (MCF7 [34]): 24.3 nM | IC50 (NCI-H460): 12.4 nM
SMILES: COc1cc(NS(=O)(=O)c2ccc3c(c2)c2ccc(O)cc2n3C)c(OC)cc1Cl
Activity (MCF7 [1]): 6.65% | Activity (MCF7 [3]): 34.89% | IC50 (NCI/ADR-RES): 7.56 nM | Activity (MCF7 [4]): 3.82% | Activity (MCF7 [6]): 8.89% | Activity (MCF7 [7]): 0.06% | Activity (MCF7 [8]): 46.27% | Activity (MCF7 [9]): 17.8% | Activity (MCF7 [10]): 42.87% | Activity (MCF7 [11]): 37.05% | Activity (MCF7 [12]): 7.54% | Activity (MCF7 [13]): 50.6% | Activity (MCF7 [14]): 17.8% | Activity (MCF7 [15]): 42.87% | Activity (MCF7 [17]): Dose-Dependent Effect | IC50 (L02): 53.7 nM | Activity (MCF7 [18]): Dose-Dependent Effect | viability at 0.0125 µM (MCF7 [19]): 49.2% | viability at 0.00625 µM (MCF7 [20]): 56.2% | Activity (MCF7 [21]): 17.8% | Activity (MCF7 [22]): 49.44% | Activity (MCF7 [23]): 10.8% | viability at 0.05 µM (MCF7 [24]): 46.3% | IC50 (HMEC-1 [25]): 6.42 nM | inhibition (HMEC-1 [26]): Active | Activity (MCF7 [27]): 0.05% | Activity (MCF7 [29]): 43.24% | Activity (MCF7 [30]): 3.93% | Activity (MCF7 [31]): 13.75% | Activity (MCF7 [32]): 0.06% | Activity (MCF7 [33]): 0.07% | Activity (HMEC-1 [35]): Dose-Dependent Effect | viability at 0.025 µM (MCF7 [36]): 36.8%
